As usually defined, the Emax is the maximal effect, on the per cent scale that the assay sets.

The text below walks through data of patent publication US20230382949A1 (HEPTARES THERAPEUTICS LIMITED, priority 2020, published 2023).

Assay [1] deals with T1, human Apelin receptor (Homo sapiens, UniProt P35414).
T1 sequence (P35414 1-380): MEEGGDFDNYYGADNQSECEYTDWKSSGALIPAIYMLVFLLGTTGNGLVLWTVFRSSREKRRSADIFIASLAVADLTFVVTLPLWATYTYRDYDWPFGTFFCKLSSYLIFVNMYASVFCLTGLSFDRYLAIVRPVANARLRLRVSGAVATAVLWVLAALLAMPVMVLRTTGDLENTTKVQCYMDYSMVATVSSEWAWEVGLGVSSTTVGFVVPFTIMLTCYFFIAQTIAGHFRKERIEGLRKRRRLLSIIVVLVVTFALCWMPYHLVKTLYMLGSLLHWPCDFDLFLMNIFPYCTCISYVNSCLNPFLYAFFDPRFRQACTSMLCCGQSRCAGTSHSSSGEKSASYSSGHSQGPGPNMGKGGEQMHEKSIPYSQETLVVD
Description: cAMP accumulation assay (HTRF), functional agonism of human Apelin receptors. The settings on record: for Emax: CHO. The format is cell-based. An excerpt:
cAMP functional assay. cAMP production was quantified using the Homogeneous Time-Resolved Fluorescence (HTRF) cAMP dynamic-2 assay (Cisbio, France).

Assay [2] addresses T2, human Apelin receptor (Homo sapiens, UniProt P35414).
T2 construct: host or cells: CHO-K1 cells
The experiment in a line: β-arrestin accumulation assay, functional agonism of human Apelin receptors. The class given is cell-based. The method in brief: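 After 16 h at 37° C., cells were exposed to increasing agonist concentrations in serum-free medium for 90 min at 37° C. Detection reagent added for 60 min in the dark; receptor activation read by fluorescence and EC50 derived from concentration-response curves.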
T2 sequence (P32121 whole entry partner, one chain of several): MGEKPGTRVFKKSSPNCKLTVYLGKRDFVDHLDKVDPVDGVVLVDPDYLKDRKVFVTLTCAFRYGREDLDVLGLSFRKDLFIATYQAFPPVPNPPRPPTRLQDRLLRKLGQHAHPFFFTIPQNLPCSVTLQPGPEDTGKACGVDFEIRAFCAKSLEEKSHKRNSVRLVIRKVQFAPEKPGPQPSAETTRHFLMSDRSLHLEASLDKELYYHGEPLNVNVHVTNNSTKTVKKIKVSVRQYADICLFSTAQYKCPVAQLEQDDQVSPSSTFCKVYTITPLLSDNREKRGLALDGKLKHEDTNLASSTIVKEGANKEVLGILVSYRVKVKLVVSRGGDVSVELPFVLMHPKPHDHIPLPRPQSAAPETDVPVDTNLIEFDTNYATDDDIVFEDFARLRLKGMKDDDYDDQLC

[3] abbreviates: Human Apelin agonist cAMP assay, CHO cells stably expressing the human Apelin receptor, 3 uM forskolin.
Where [4] appears, read: pEC50, Human Apelin agonist cAMP assay, CHO cells stably expressing the human Apelin receptor, 3 uM forskolin.

Structures are written as SMILES. Read-outs that look alike come from different tables or passages of the source. Starred links: 1 amine or outer side, 2 acyl side, 3 side chain; linkers in the order of their positions; H or OH if unused. Non-standard residues stand in square brackets, D forms with d. Residues, ends and D or L forms follow the SMILES beside them. *: point of attachment. Ala(piperidin-4-yl) = O=C([C@H](CC1CCN([*:3])CC1)N[*:1])[*:2]; Malonyl(2,2-Me2,histaminyl) = CC(C)(C(=O)NCCc1cnc[nH]1)C(=O)*; dBip = N[C@H](Cc1ccc(-c2ccccc2)cc1)C(=O)O; Oic = O=C(O)[C@@H]1C[C@@H]2CCCC[C@@H]2N1; Phe(3-Cl) = N[C@@H](Cc1cccc(Cl)c1)C(=O)O; Phe(4-Br) = N[C@@H](Cc1ccc(Br)cc1)C(=O)O; X2 = COCCOCCOCCOCCOCCNC(=O)C(C)(C)C(=O)*; hArg = N=C(N)NCCCC[C@H](N)C(=O)O; tBuAla = CC(C)(C)C[C@H](N)C(=O)O; 3Pal = N[C@@H](Cc1cccnc1)C(=O)O; Pip = O=C(O)[C@@H]1CCCCN1; Nle = CCCC[C@H](N)C(=O)O; Aib = CC(C)(N)C(=O)O; Bn = c1ccc(C*)cc1 Where only a bound is given, the exact number is not on record here.

On human Apelin receptor [1] (setting [3]), `CC(C)(C)C[C@H](NC(=O)[C@@H](CCCNC(=N)N)NC(=O)[C@@H]1CCCN1C(=O)[C@H](CCCCNC(=N)N)NC(=O)[C@H](CCC(N)=O)NC(=O)[C@@H](CCCNC(=N)N)NC(=O)C(C)(C)C(=O)NCCc1c[nH]cn1)C(=O)NC(C)(C)C(=O)N[C@@H](Cc1c[nH]cn1)C(=O)N[C@@H](CC1CCNCC1)C(=O)NCC(=O)N1[C@H](C(=O)N[C@@H](Cc2ccc(Br)cc2)C(=O)N2CCC[C@H]2C(=O)N[C@H](Cc2ccc(-c3ccccc3)cc2)C(=O)O)C[C@@H]2CCCC[C@@H]21` [Example 13] ({Malonyl(2,2-Me2,histaminyl)}-[dR]Q[hArg]P[dR][tBuAla][Aib]H[Ala(piperidin-4-yl)]G[Oic][Phe(4-Br)]P[dBip]-OH) displayed an Emax of 72.9%. In addition, the EC50 on human Apelin receptor [1] (setting [4]) is 25.1 nM; at human Apelin receptor [2], greater than 10000 nM.
In the case of `COCCOCCOCCOCCOCCNC(=O)C(C)(C)C(=O)N[C@H](CCCNC(=N)N)C(=O)N[C@@H](CCC(N)=O)C(=O)N[C@@H](CCCCNC(=N)N)C(=O)N1CCC[C@H]1C(=O)N[C@H](CCCNC(=N)N)C(=O)N[C@@H](CC(C)C)C(=O)NC(C)(C)C(=O)N[C@@H](Cc1c[nH]cn1)C(=O)N[C@@H](CC1CCNCC1)C(=O)NCC(=O)N1[C@H](C(=O)N[C@@H](Cc2ccc(Br)cc2)C(=O)N2CCC[C@H]2C(=O)N[C@H](Cc2ccc(-c3ccccc3)cc2)C(=O)O)C[C@@H]2CCCC[C@@H]21` [Example 7] (X2-[dR]Q[hArg]P[dR]L[Aib]H[Ala(piperidin-4-yl)]G[Oic][Phe(4-Br)]P[dBip]-OH), the Emax at human Apelin receptor [1] (read-out: Emax) worked out at 59.2%. Also, the EC50 on human Apelin receptor [1] (read-out: pEC50 (converted)) is 20 nM; on human Apelin receptor [2] it was greater than 10000 nM.
Consider `CC(C)C[C@H](NC(=O)[C@@H](CCCNC(=N)N)NC(=O)[C@@H]1CCCCN1C(=O)[C@H](CCCCNC(=N)N)NC(=O)[C@H](CCC(N)=O)NC(=O)C(C)(C)C(=O)NCCc1cnc[nH]1)C(=O)NC(C)(C)C(=O)N[C@@H](Cc1c[nH]cn1)C(=O)N[C@@H](CC1CCNCC1)C(=O)N[C@@H](C)C(=O)N1[C@H](C(=O)N[C@@H](Cc2ccc(Br)cc2)C(=O)N2CCC[C@H]2C(=O)N[C@H](Cc2ccc(-c3ccccc3)cc2)C(=O)O)C[C@@H]2CCCC[C@@H]21` [Example 54] ({Malonyl(2,2-Me2,histaminyl)}-Q[hArg][Pip][dR]L[Aib]H[Ala(piperidin-4-yl)]A[Oic][Phe(4-Br)]P[dBip]-OH), for which the maximal response (Emax) at human Apelin receptor [1] (read-out: Emax) stood at 61.2%. Also, the EC50 on human Apelin receptor [1] (read-out: pEC50 (converted)) was 1.26 nM; at human Apelin receptor [2], greater than 10000 nM.
In turn, `CC(C)C[C@H](NC(=O)[C@@H](CCCNC(=N)N)NC(=O)[C@@H]1CCCN1C(=O)[C@H](CCCNC(=N)N)NC(=O)[C@H](CCC(N)=O)NC(=O)[C@@H](CCCNC(=N)N)NC(=O)C(C)(C)C(=O)NCCc1c[nH]cn1)C(=O)NC(C)(C)C(=O)N[C@@H](Cc1c[nH]cn1)C(=O)N[C@@H](CC1CCNCC1)C(=O)NCC(=O)N1[C@H](C(=O)N[C@@H](Cc2ccc(Br)cc2)C(=O)N2CCC[C@H]2C(=O)N[C@H](Cc2ccc(-c3ccccc3)cc2)C(=O)O)C[C@@H]2CCCC[C@@H]21` [Example 9] ({Malonyl(2,2-Me2,histaminyl)}-[dR]QRP[dR]L[Aib]H[Ala(piperidin-4-yl)]G[Oic][Phe(4-Br)]P[dBip]-OH) registered a maximal effect (Emax) on human Apelin receptor [1] (setting [3]) of 86.9%. Further, the values for the EC50 on human Apelin receptor [1] (setting [4]) and at human Apelin receptor [2] were 6.31 nM and greater than 10000 nM, respectively.
On human Apelin receptor [1] (setting [3]), `CCCC[C@H](NC(=O)[C@@H]1C[C@@H]2CCCC[C@@H]2N1C(=O)CNC(=O)[C@H](CC1CCNCC1)NC(=O)[C@H](Cc1ccc(Br)cc1)NC(=O)C(C)(C)NC(=O)[C@H](CC(C)C)NC(=O)[C@H](CCCNC(=N)N)NC(=O)[C@@H]1CCCN1C(=O)[C@@H](CCCNC(=N)N)NC(=O)[C@H](CCC(N)=O)NC(=O)[C@@H](CCCNC(=N)N)NC(=O)C(C)(C)C(=O)NCCc1cnc[nH]1)C(=O)N1CCC[C@H]1C(=O)N[C@H](Cc1ccc(-c2ccccc2)cc1)C(=O)O` [Example 34] ({Malonyl(2,2-Me2,histaminyl)}-[dR]Q[dR]PRL[Aib][Phe(4-Br)][Ala(piperidin-4-yl)]G[Oic][Nle]P[dBip]-OH) showed an Emax of 60.6%. Also, the EC50 at human Apelin receptor [1] (setting [4]) was 25.1 nM; on human Apelin receptor [2], greater than 10000 nM.
The like results for `CC(C)C[C@H](NC(=O)[C@@H](CCCNC(=N)N)NC(=O)[C@@H]1CCCN1C(=O)[C@H](CCCCNC(=N)N)NC(=O)[C@H](CCC(N)=O)NC(=O)[C@@H](CCCNC(=N)N)NC(=O)C(C)(C)C(=O)NCCc1c[nH]cn1)C(=O)NC(C)(C)C(=O)N[C@@H](Cc1c[nH]cn1)C(=O)N[C@@H](CC1CCNCC1)C(=O)NCC(=O)N1[C@H](C(=O)N[C@@H](Cc2ccc(Br)cc2)C(=O)N2CCC[C@H]2C(=O)N[C@H](Cc2ccc(OCc3ccccc3)cc2)C(=O)O)C[C@@H]2CCCC[C@@H]21` [Example 22] ({Malonyl(2,2-Me2,histaminyl)}-[dR]Q[hArg]P[dR]L[Aib]H[Ala(piperidin-4-yl)]G[Oic][Phe(4-Br)]P[dY](Bn)-OH) were, in that order, 98.1%, 7.94 nM and greater than 10000 nM.
`CC(C)C[C@@H](NC(=O)[C@@H](CCCNC(=N)N)NC(=O)[C@@H]1CCCN1C(=O)[C@H](CCCCNC(=N)N)NC(=O)[C@@H](CCC(N)=O)NC(=O)C(C)(C)C(=O)NCCc1cnc[nH]1)C(=O)NC(C)(C)C(=O)N[C@@H](Cc1c[nH]cn1)C(=O)N[C@@H](CC1CCNCC1)C(=O)N[C@H](C)C(=O)N1[C@H](C(=O)N[C@@H](Cc2ccc(Br)cc2)C(=O)N2CCC[C@H]2C(=O)N[C@H](Cc2ccc(-c3ccccc3)cc2)C(=O)O)C[C@@H]2CCCC[C@@H]21` [Example 48] ({Malonyl(2,2-Me2,histaminyl)}-[dQ][hArg]P[dR][dL][Aib]H[Ala(piperidin-4-yl)][dA][Oic][Phe(4-Br)]P[dBip]-OH) had an Emax on human Apelin receptor [1] (setting [3]) of 33.5%. In addition, the EC50 at human Apelin receptor [1] (setting [4]) is 100 nM; on human Apelin receptor [2], greater than 10000 nM.
Turning to `CC(C)C[C@H](NC(=O)[C@@H](CCCNC(=N)N)NC(=O)[C@@H]1CCCN1C(=O)[C@H](CCCCNC(=N)N)NC(=O)[C@H](CCC(N)=O)NC(=O)[C@@H](CCCNC(=N)N)NC(=O)C(C)(C)C(=O)NCCc1c[nH]cn1)C(=O)NC(C)(C)C(=O)N[C@@H](Cc1c[nH]cn1)C(=O)N[C@@H](CC1CCNCC1)C(=O)NCC(=O)N1[C@H](C(=O)N[C@@H](Cc2cccc(Cl)c2)C(=O)N2CCC[C@H]2C(=O)N[C@H](Cc2ccc(-c3ccccc3)cc2)C(=O)O)C[C@@H]2CCCC[C@@H]21` [Example 18] ({Malonyl(2,2-Me2,histaminyl)}-[dR]Q[hArg]P[dR]L[Aib]H[Ala(piperidin-4-yl)]G[Oic][Phe(3-Cl)]P[dBip]-OH), the maximal response (Emax) on human Apelin receptor [1] (setting [3]) was 47.5%. Moreover, the EC50 on human Apelin receptor [1] (setting [4]) is 79.4 nM; at human Apelin receptor [2], greater than 10000 nM.
In the case of `CC(C)C[C@H](NC(=O)[C@@H](CCCNC(=N)N)NC(=O)[C@@H]1CCCCN1C(=O)[C@H](CCCCNC(=N)N)NC(=O)[C@H](CCC(N)=O)NC(=O)C(C)(C)C(=O)NCCc1cnc[nH]1)C(=O)NC(C)(C)C(=O)N[C@@H](Cc1cccnc1)C(=O)N[C@@H](CC1CCNCC1)C(=O)NCC(=O)N1[C@H](C(=O)N[C@@H](Cc2ccc(Br)cc2)C(=O)N2CCC[C@H]2C(=O)N[C@H](Cc2ccc(-c3ccccc3)cc2)C(=O)O)C[C@@H]2CCCC[C@@H]21` [Example 56] ({Malonyl(2,2-Me2,histaminyl)}-Q[hArg][Pip][dR]L[Aib][3Pal][Ala(piperidin-4-yl)]G[Oic][Phe(4-Br)]P[dBip]-OH), on human Apelin receptor [1] (read-out: Emax), the Emax came to 68.1%. Also, the EC50 on human Apelin receptor [1] (read-out: pEC50 (converted)) was 20 nM; on human Apelin receptor [2], greater than 10000 nM.
With `CC(C)C[C@H](NC(=O)[C@H](CCCNC(=N)N)NC(=O)[C@@H]1CCCN1C(=O)[C@@H](CCCNC(=N)N)NC(=O)[C@H](CCC(N)=O)NC(=O)[C@@H](CCCNC(=N)N)NC(=O)C(C)(C)C(=O)NCCc1cnc[nH]1)C(=O)NC(C)(C)C(=O)N[C@@H](Cc1ccc(Br)cc1)C(=O)N[C@@H](CC1CCNCC1)C(=O)NCC(=O)N1[C@H](C(=O)N[C@@H](Cc2ccccc2)C(=O)N2CCC[C@H]2C(=O)N[C@H](Cc2ccc(-c3ccccc3)cc2)C(=O)O)C[C@@H]2CCCC[C@@H]21` [Example 35] ({Malonyl(2,2-Me2,histaminyl)}-[dR]Q[dR]PRL[Aib][Phe(4-Br)][Ala(piperidin-4-yl)]G[Oic]FP[dBip]-OH), the maximal response (Emax) at human Apelin receptor [1] (setting [3]) was found to be 35.3%. In addition, the EC50 at human Apelin receptor [1] (setting [4]) is 63.1 nM; on human Apelin receptor [2] it was greater than 10000 nM.
`CC(C)C[C@H](NC(=O)[C@@H](CCCNC(=N)N)NC(=O)[C@@H]1CCCN1C(=O)[C@H](CCCCNC(=N)N)NC(=O)[C@H](CCC(N)=O)NC(=O)[C@@H](CCCNC(=N)N)NC(=O)C(C)(C)C(=O)NCCc1cnc[nH]1)C(=O)N[C@H](C)C(=O)N[C@@H](Cc1c[nH]cn1)C(=O)N[C@@H](CC1CCNCC1)C(=O)NCC(=O)N1[C@H](C(=O)N[C@@H](Cc2ccc(Br)cc2)C(=O)N2CCC[C@H]2C(=O)N[C@H](Cc2ccc(-c3ccccc3)cc2)C(=O)O)C[C@@H]2CCCC[C@@H]21` [Example 1] ({Malonyl(2,2-Me2,histaminyl)}-[dR]Q[hArg]P[dR]L[dA]H[Ala(piperidin-4-yl)]G[Oic][Phe(4-Br)]P[dBip]-OH): the maximal response (Emax) at human Apelin receptor [1] (setting [3]) was determined as 27.2%. Also, the results for the EC50 at human Apelin receptor [1] (setting [4]) and on human Apelin receptor [2] were 15.8 nM and greater than 10000 nM, respectively.
